Experimental findings from ChEMBL document CHEMBL3525960, “Role of catechol-O-methyltransferase in the disposition of luteolin in rats” (Drug Metab Dispos, 2011) are described below.

The structures appear in SMILES notation.

Broadly, the AUC(0-t) is exposure summed from dosing to a finite time, without extrapolation to infinity. A high value points to high exposure. By Cmax is commonly meant the highest concentration seen after dosing. For orientation: AUC(0-inf) means the area under the concentration-time curve extrapolated to infinity. Read a low AUC(0-inf) as low exposure. As a reminder, the MRT last is the average time that molecules of a dose stay in the body. For orientation: MRT inf means the average time that molecules of a dose stay in the body. One may read the clearance as the volume of plasma or blood freed of the substance per unit of time. Low values mean inefficient removal, high ones efficient removal. As usually defined, the half-life is the time in which the quantity being followed falls by half. As a reminder, the Vd is the apparent volume that relates the amount in the body to the concentration in plasma or blood. Low readings indicate little distribution into tissue, high ones wide distribution into tissue.

In one series the test system is Liver microsome. The series can be described thus: Stability in Sprague-Dawley rat liver microsomes at 10 uM after 10 to 30 mins by HPLC analysis. The series is classed as ADME. On the technique in general: Microsomes from liver hold many membrane-bound enzymes, among them those of drug oxidation.
Series [1] in a line: AUC (0 to t) in Sprague-Dawley rat treated with luteolin at 6.5 mg/kg, iv. The note with it: plasma. Also on record: dose 6.5 mg/kg, route intravenous. The series is classed as ADME, organism-based.
The test system of series [2] is Kidney. Description: Drug metabolism in Sprague-Dawley rat kidney homogenate treated with luteolin at 20 uM after 20 to 60 mins in presence of COMT inhibitor entacapone. It counts as ADME, tissue-based. The note with it: tissue homogenate.
The nature of series [3]: Cmax in Sprague-Dawley rat treated with luteolin at 6.5 mg/kg, iv. The series is classed as ADME, organism-based. Also on record: dose 6.5 mg/kg, route intravenous. The note with it: in vivo.
Series [4] in a line: AUC (0 to infinity) in Sprague-Dawley rat treated with luteolin at 6.5 mg/kg, iv. Also on record: time infinity, dose 6.5 mg/kg, route intravenous. It counts as ADME, organism-based. The note with it: plasma.
A short description of series [5]: Drug excretion in Sprague-Dawley rat urine treated with luteolin at 6.5 mg/kg, iv after 24 hrs. Also on record: dose 6.5 mg/kg, route intravenous. The series is classed as ADME, organism-based. The note with it: read-out: Drug excretion.
Series [6] concerns Small intestine. Description: Drug metabolism in Sprague-Dawley rat small intestine homogenate treated with luteolin at 20 uM after 20 to 60 mins in presence of COMT inhibitor entacapone. It counts as ADME, tissue-based. The note with it: tissue homogenate.
A short description of series [7]: Drug excretion in Sprague-Dawley rat urine treated with luteolin at 6.5 mg/kg, iv after 24 hrs co-treated with COMT inhibitor entacapone. The series is classed as ADME, organism-based. Also on record: dose 6.5 mg/kg, route intravenous. The note with it: read-out: Drug excretion.
The nature of series [8]: Mean residence time (0 to t) in Sprague-Dawley rat treated with luteolin at 6.5 mg/kg, iv. The series is classed as ADME, organism-based. Also on record: dose 6.5 mg/kg, route intravenous. The note with it: in vivo.
Series [9] in a line: Mean residence time (0 to infinity) in Sprague-Dawley rat treated with luteolin at 6.5 mg/kg, iv. The series is classed as ADME, organism-based. Also on record: dose 6.5 mg/kg, route intravenous. The note with it: in vivo.
A short description of series [10]: Drug metabolism in Sprague-Dawley rat erythrocytes homogenate treated with luteolin at 20 uM after 20 to 60 mins in presence of COMT inhibitor entacapone. It counts as ADME, cell-based. The note with it: erythrocyte.
Series [11] has as its system Kidney. Description: Drug metabolism in Sprague-Dawley rat kidney homogenate treated with luteolin at 20 uM after 20 to 60 mins. The series is classed as ADME, tissue-based. The note with it: tissue homogenate.
In a further series the test system is Rattus norvegicus. Description: Clearance in Sprague-Dawley rat treated with luteolin at 6.5 mg/kg, iv. Also on record: dose 6.5 mg/kg, route intravenous. The series is classed as ADME, organism-based. The note with it: in vivo.
Series [12] is described as follows: Half life in Sprague-Dawley rat treated with luteolin at 6.5 mg/kg, iv. Also on record: dose 6.5 mg/kg, route intravenous. The note with it: in vivo. It counts as ADME, organism-based.
The nature of series [13]: Drug metabolism in Sprague-Dawley rat erythrocytes homogenate treated with luteolin at 20 uM after 20 to 60 mins. The series is classed as ADME, cell-based. The note with it: erythrocyte.
The test system of series [14] is Small intestine. The series can be described thus: Drug metabolism in Sprague-Dawley rat small intestine homogenate treated with luteolin at 20 uM after 20 to 60 mins. The series is classed as ADME, tissue-based. The note with it: tissue homogenate.
Series [15] in a line: Volume of distribution in Sprague-Dawley rat treated with luteolin at 6.5 mg/kg, iv. It counts as ADME, organism-based. Also on record: dose 6.5 mg/kg, route intravenous. The note with it: in vivo.
For series [16], the system named is Lung. Description: Drug metabolism in Sprague-Dawley rat lung homogenate treated with luteolin at 20 uM after 20 to 60 mins in presence of COMT inhibitor entacapone. It counts as ADME, tissue-based. The note with it: tissue homogenate.
Series [17] in a line: Drug recovery in Sprague-Dawley rat urine assessed as retention time treated with luteolin at 6.5 mg/kg, iv by reverse-phase HPLC method. The note with it: in vivo. Also on record: dose 6.5 mg/kg, route intravenous. The series is classed as ADME, organism-based.
For series [18], the system named is Liver. Description: Drug metabolism in Sprague-Dawley rat liver homogenate treated with luteolin at 20 uM after 20 to 60 mins. The note with it: tissue homogenate. It counts as ADME, tissue-based.
Series [19] has as its system Lung. The series can be described thus: Drug metabolism in Sprague-Dawley rat lung homogenate treated with luteolin at 20 uM after 20 to 60 mins. The series is classed as ADME, tissue-based. The note with it: tissue homogenate.
The subject of series [20] is Liver. The series can be described thus: Drug metabolism in Sprague-Dawley rat liver homogenate treated with luteolin at 20 uM after 20 to 60 mins in presence of COMT inhibitor entacapone. The series is classed as ADME, tissue-based. The note with it: tissue homogenate.

Turning to `COc1ccc(-c2cc(=O)c3c(O)cc(O)cc3o2)cc1O` [DIOSMETIN], the Stability result with Liver microsome is “Unstable”. Further, the AUC(0-t) in series [1] was 427 ng·h/mL. For the same compound, the Drug metabolism entry is “metabolite_not_detected” with Kidney [2]; “metabolite_not_detected” with Small intestine [6]; “metabolite_not_detected” in [10]; “metabolite_detected” with Kidney [11]; “metabolite_detected” in series [13]; “metabolite_detected” with Small intestine [14]. In addition, the Drug metabolism result in the series with Lung [16] is on record as “metabolite_not_detected”; in the series on Liver [18], “metabolite_detected”; with Lung [19], “metabolite_detected”; in the series on Liver [20] it was “metabolite_not_detected”. In addition, the Cmax in series [3] came to 560 ng/mL. The compound also registered an area under the curve AUC(0-inf) in series [4] of 466 ng·h/mL. For the same compound, the results for the dose excreted at 24 h in series [5] and in series [7] were 1.22% and 0.254%, respectively. This compound also registered a mean residence time (MRT last) in series [8] of 35.8 min. In addition, the mean residence time MRT inf in [9] stood at 46 min. Also, the clearance with Rattus norvegicus turned out to be 238 mL/min/kg. The half-life in [12] is 30.8 min. Besides, the Vd in series [15] came to 10.3 L/kg. Besides, in series [17], the Retention_time is 30.85 min.
